# Legend:
# [1] = tested on: HIV-1-positive J1.1 cell line; format: cell-based
# AnlO = format: cell-based, Bacillus anthracis
# α-hemolysin = α-hemolysin (Staphylococcus aureus, UniProt P09616); format: cell-based
# healthy macrophages = format: cell-based, human
# α-hemolysin, sequence (P09616 27-319 limits assumed): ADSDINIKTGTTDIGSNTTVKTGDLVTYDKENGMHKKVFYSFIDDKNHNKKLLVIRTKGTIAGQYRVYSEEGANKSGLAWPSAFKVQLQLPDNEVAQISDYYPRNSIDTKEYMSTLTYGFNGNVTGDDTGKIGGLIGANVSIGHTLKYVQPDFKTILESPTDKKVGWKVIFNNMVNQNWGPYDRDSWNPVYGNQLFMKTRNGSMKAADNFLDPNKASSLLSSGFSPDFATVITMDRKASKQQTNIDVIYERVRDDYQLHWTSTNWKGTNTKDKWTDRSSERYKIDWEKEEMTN
Molecule,infectivity of virus generated in the presence of the compound [1],change of GFP-positive cell population (inhibition of cytolysis by anlO) (AnlO),number of GFP positive cells (α-hemolysin),"cytolysis, share of the cells (healthy macrophages) [%]",time to detection of cytolysis (healthy macrophages; 500 ng/ml) [days]
6-boc orthinine amide-β-cyclodextrin [6-BOCD],no difference in infectivity,doubling,did not increase,,
COc1ccc(C[C@H](N)C(=O)N[C@H]2[C@@H](O)[C@H](n3cnc4c(N(C)C)ncnc43)O[C@@H]2CO)cc1 [puromycin],,,,25,≤ 2
